Results on 15 compounds are retold here after ChEMBL document CHEMBL4765455, “Design, synthesis, and biological evaluations of novel 3-amino-4-ethynyl indazole derivatives as Bcr-Abl kinase inhibitors with potent cellular antileukemic activity” (Eur J Med Chem, 2020).

Series [1] is described as follows: Antiproliferative activity against human L132 cells assessed as cell growth inhibition incubated for 72 hrs by MTT assay. It is filed as cell-based.
For series [2], the system named is K562. Put plainly: Antiproliferative activity against human K562 cells assessed as cell growth inhibition incubated for 72 hrs by MTT assay. It is filed as functional. Background: Formazan colour is commonly taken as a measure of viable cells.
The target in series [3] is Bcr/Abl fusion protein (Homo sapiens, UniProt P00519, T315I). The series is described as follows: Inhibition of BCR-ABL T315I mutant (unknown origin) incubated for 40 mins in presence of [gamma33P]ATP by scintillation method. It is filed as protein assay.
Series [4] deals with MOLT-4. Put plainly: Antiproliferative activity against human MOLT-4 cells assessed as cell growth inhibition at 10 uM measured after 48 hrs by SRB assay relative to control. The format is functional. The conditions noted are these: read-out: GI. A general note: In SRB staining, fixed cells bind dye roughly in proportion to their protein.
Series [5] relates to K562. Put plainly: Antiproliferative activity against human K562 cells assessed as cell growth inhibition measured after 48 hrs by SRB assay. The format is functional.
Series [6] has as its system HL-60(TB). The series is described as follows: Antiproliferative activity against human HL-60(TB) cells assessed as cell growth inhibition at 10 uM measured after 48 hrs by SRB assay relative to control. It is filed as functional.
Series [7] relates to SR. Put plainly: Antiproliferative activity against human SR cells assessed as cell growth inhibition at 10 uM measured after 48 hrs by SRB assay relative to control. The conditions noted are these: read-out: GI. The format is functional.
In series [8] the test system is RPMI-8226. Put plainly: Antiproliferative activity against human RPMI-8226 cells assessed as cell growth inhibition at 10 uM measured after 48 hrs by SRB assay relative to control. It is filed as functional. The conditions noted are these: read-out: GI.
For series [9], the system named is CCRF-CEM. Put plainly: Antiproliferative activity against human CCRF-CEM cells assessed as cell growth inhibition at 10 uM measured after 48 hrs by SRB assay relative to control. The format is functional. The settings on record: read-out: GI.
Series [10] deals with Bcr/Abl fusion protein (Homo sapiens, UniProt P00519). The series is described as follows: Inhibition of wild type BCR-ABL (unknown origin) incubated for 40 mins in presence of [gamma33P]ATP by scintillation method. The format is protein assay.
In series [11] the test system is K562. Put plainly: Antiproliferative activity against human K562 cells assessed as cell growth inhibition at 10 uM measured after 48 hrs by SRB assay relative to control. It is filed as functional. The settings on record: read-out: GI.
Series [12] in a line: Selectivity index, ratio of GI50 for human HL60(TB) cells to GI50 for human K562 cells. The format is functional.
Series [13] relates to RPMI-8226. The series is described as follows: Antiproliferative activity against human RPMI-8226 cells assessed as cell growth inhibition measured after 48 hrs by SRB assay. It is filed as functional.
Series [14] has as its system HL-60(TB). The series is described as follows: Antiproliferative activity against human HL-60(TB) cells assessed as cell growth inhibition measured after 48 hrs by SRB assay. It is filed as functional.
Series [15] has as its system MOLT-4. Put plainly: Antiproliferative activity against human MOLT-4 cells assessed as cell growth inhibition measured after 48 hrs by SRB assay. It is filed as functional.
The subject of series [16] is SR. Put plainly: Antiproliferative activity against human SR cells assessed as cell growth inhibition measured after 48 hrs by SRB assay. It is filed as functional.
Series [17] deals with CCRF-CEM. The series is described as follows: Antiproliferative activity against human CCRF-CEM cells assessed as cell growth inhibition measured after 48 hrs by SRB assay. It is filed as functional.

The structures appear in SMILES notation. The source made the active and inactive calls. The calls are words filed in the database; no cut-off is given here.

Turning to `Nc1n[nH]c2cccc(C#Cc3cccc(C(=O)Nc4cc(C(F)(F)F)cc(C(F)(F)F)c4)c3)c12`, the 50% growth inhibitory concentration (GI50) (as a rule, the concentration that inhibits growth by half) at 72 h in series [1] is > 100 µM. For the same compound, the GI50 with K562 [2] is 0.52 µM. Further, the half-maximal inhibitory concentration (IC50) (in general, the concentration that inhibits the measured activity by half) at Bcr/Abl fusion protein [3] stood at 1.48 µM.

Take `Cc1ccc(NC(=O)c2ccc(CN3CCN(C)CC3)cc2)cc1Nc1nccc(-c2cccnc2)n1` [IMATINIB]: the concentration for 50% growth inhibition (GI50) at 72 h in series [1] was > 10 µM. The inhibition of growth at 10 µM in the series with MOLT-4 [4] amounted to 18%; in the series on SR [7], 14.6%; with RPMI-8226 [8], 12.6%; in the series with CCRF-CEM [9] it was 6.6%. Also, the GI50 in the series with K562 [5] turned out to be 0.02 µM; in the series with K562 [2] it was 0.8 µM. Further, the “growth inhibition (GI)” value with HL-60(TB) [6] was “inactive”.

On to `Nc1n[nH]c2cccc(C#Cc3cccc(NC(=O)c4cc(C(F)(F)F)cc(C(F)(F)F)c4)c3)c12`, for which, in the series with K562 [2], the concentration for 50% growth inhibition (GI50) is > 10 µM. Moreover, the IC50 on Bcr/Abl fusion protein [3] was > 20 µM.

Turning to `Nc1n[nH]c2cccc(C#Cc3cccc(C(=O)Nc4cc(CN5CCOCC5)cc(C(F)(F)F)c4)c3)c12`, the GI50 at 72 h in [1] stood at 16.7 µM. Moreover, the IC50 at Bcr/Abl fusion protein [10] amounted to 0.571 µM; on Bcr/Abl fusion protein [3] it was 2.51 µM. Further, the GI50 in the series with K562 [2] worked out at 0.83 µM.

With `Nc1n[nH]c2cccc(C#Cc3cccc(C(=O)Nc4ccc(Cl)c(C(F)(F)F)c4)c3)c12`, in series [1], the 50% growth inhibitory concentration (GI50) at 72 h is > 100 µM. The GI50 in the series on K562 [2] was determined as 3.81 µM. For the same compound, the IC50 on Bcr/Abl fusion protein [3] turned out to be 1.42 µM.

With `Nc1n[nH]c2cccc(C#Cc3cccc(C(=O)Nc4ccc(CN5CCOCC5)c(C(F)(F)F)c4)c3)c12`, the GI50 at 72 h in series [1] was > 100 µM. For the same compound, the IC50 on Bcr/Abl fusion protein [10] is 0.194 µM; at Bcr/Abl fusion protein [3] it was 1.61 µM. Further, in the series with K562 [2], the GI50 is 0.57 µM.

As for `Nc1n[nH]c2cccc(C#Cc3cccc(NC(=O)c4cccc(C(F)(F)F)c4)c3)c12`, the GI50 at 72 h in [1] is > 100 µM. Moreover, in the series with K562 [2], the GI50 is 1.54 µM. The IC50 on Bcr/Abl fusion protein [3] was determined as 2.55 µM.

As to `Cc1cn(-c2cc(C(=O)Nc3cccc(C#Cc4cccc5[nH]nc(N)c45)c3)cc(C(F)(F)F)c2)cn1`, the GI50 at 72 h in series [1] stood at 10.9 µM. Besides, the results for the IC50 on Bcr/Abl fusion protein [10] and on Bcr/Abl fusion protein [3] were 0.0154 µM and 1.44 µM, respectively. Also, the GI50 in the series with K562 [2] was 0.07 µM.

Take `CN1CCN(c2ccc(C(=O)Nc3cccc(C#Cc4cccc5[nH]nc(N)c45)c3)cc2C(F)(F)F)CC1`: the GI50 at 72 h in [1] was > 10 µM. For the same compound, the GI50 in the series with K562 [2] turned out to be 1.48 µM.

On to `CN1CCN(Cc2cc(NC(=O)c3cccc(C#Cc4cccc5[nH]nc(N)c45)c3)cc(C(F)(F)F)c2)CC1`, for which the 50% growth inhibitory concentration (GI50) at 72 h in series [1] was > 100 µM. The figures for the IC50 at Bcr/Abl fusion protein [10] and on Bcr/Abl fusion protein [3] were 0.0567 µM and 1.63 µM, respectively. In addition, the concentration for 50% growth inhibition (GI50) with K562 [2] came to 0.3 µM.

Regarding `Nc1n[nH]c2cccc(C#Cc3cccc(NC(=O)c4cc(F)cc(C(F)(F)F)c4)c3)c12`, in series [1], the GI50 at 72 h was > 100 µM. Also, the GI50 in the series on K562 [2] was 2.14 µM. For the same compound, on Bcr/Abl fusion protein [3], the IC50 was found to be 5.28 µM.

As to `Cc1cn(-c2cc(NC(=O)c3cccc(C#Cc4cccc5[nH]nc(N)c45)c3)cc(C(F)(F)F)c2)cn1`, in series [1], the GI50 at 72 h turned out to be 12.9 µM. For the same compound, the inhibition of growth at 10 µM with K562 [11] was determined as 96.8%; in the series on MOLT-4 [4] it was 79.3%; in the series on HL-60(TB) [6] (read-out: GI), 87.5%; with SR [7] it was 71.7%; in the series on RPMI-8226 [8], 86.2%; with CCRF-CEM [9], 85%. In addition, the RatioGI50 in [12] was determined as 322. The IC50 at Bcr/Abl fusion protein [10] is 0.0258 µM; at Bcr/Abl fusion protein [3], 0.824 µM. The GI50 is 4.54 µM in the series on RPMI-8226 [13]; 3.22 µM with HL-60(TB) [14]; < 0.01 µM in the series on K562 [5]; 3.84 µM with MOLT-4 [15]; 5.06 µM in the series on SR [16]; 0.15 µM in the series on K562 [2]. Besides, the GI50 in the series with CCRF-CEM [17] turned out to be 4.88 µM.

With `Nc1n[nH]c2cccc(C#Cc3cccc(C(=O)Nc4cccc(C(F)(F)F)c4)c3)c12`, in series [1], the GI50 at 72 h stood at 15.3 µM. Besides, the concentration for 50% growth inhibition (GI50) in the series with K562 [2] is 3.47 µM. In addition, the IC50 at Bcr/Abl fusion protein [3] is 2.26 µM.

Consider `Nc1n[nH]c2cccc(C#Cc3cccc(NC(=O)c4cc(N5CCOCC5)cc(C(F)(F)F)c4)c3)c12`, for which, in [1], the GI50 at 72 h was > 100 µM. Further, the GI50 with K562 [2] stood at 2.21 µM. Further, the IC50 at Bcr/Abl fusion protein [3] is 4.84 µM.

For `Cc1ccc(C(=O)Nc2cccc(C#Cc3cccc4[nH]nc(N)c34)c2)cc1C(F)(F)F`, in series [1], the GI50 at 72 h was > 100 µM. In addition, the GI50 in the series on K562 [2] was 2.35 µM.
